We go through 13 compounds from patent US9255094B2, “Pyrido[4,3-B]indoles and methods of use” (Medivation Technologies, Inc., priority 2009, dated 2016).

Structures are written as SMILES.

Test [1] deals with T1, human recombinant adrenergic α2B receptor (Homo sapiens, UniProt P18089).
T1 construct: expressed in transfected cells; host or cells: Chinese hamster ovary (CHO-K1) cells
T1 sequence (P18089 1-450): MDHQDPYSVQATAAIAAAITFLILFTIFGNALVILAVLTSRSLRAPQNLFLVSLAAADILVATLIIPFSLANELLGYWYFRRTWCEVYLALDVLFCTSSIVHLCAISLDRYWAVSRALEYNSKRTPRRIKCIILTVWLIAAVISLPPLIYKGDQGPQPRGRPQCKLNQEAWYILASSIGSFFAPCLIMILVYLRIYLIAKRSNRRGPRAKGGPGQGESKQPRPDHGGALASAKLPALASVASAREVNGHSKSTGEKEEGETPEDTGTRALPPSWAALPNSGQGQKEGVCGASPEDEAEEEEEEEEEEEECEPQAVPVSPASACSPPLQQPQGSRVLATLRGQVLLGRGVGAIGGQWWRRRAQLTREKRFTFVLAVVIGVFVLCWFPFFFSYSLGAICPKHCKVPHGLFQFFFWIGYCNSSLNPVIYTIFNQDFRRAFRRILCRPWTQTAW
The test can be described thus: Adrenergic α2B radioligand binding assay ([3H]Rauwolscine). The following applies: 2.5 nM [3H]Rauwolscine, CHO-K1 cells; for inhibition at 0.1 µM: compound at 0.1 μM, read-out: Percent Inhibition of ligand binding, Adrenergic (0.1 μM) a2B; for inhibition at 1 µM: compound at 1 μM, read-out: Percent Inhibition of ligand binding, Adrenergic (1 μM) a2B. The protocol: To evaluate in radioligand binding assays the activity of compounds of the invention, human recombinant adrenergic α2B receptor expressed in Chinese hamster ovary (CHO-K1) cells (Uhlen S et al., Eur. J. Pharmacol. 343(1):93, 1998) in a modified Tris-HCl buffer (50 mM Tris-HCl, pH 7.4, 12.5 mM MgCl2, 1 mM EDTA, 0.2% BSA) was used. Compounds of the invention were incubated with 2.5 nM [^3H]Rauwolscine for 60 min at 25° C. Non-specific binding was estimated in the presence of 10 μM Prozosin. Receptor proteins were filtered and washed, the filters were then counted to determine [^3H]Rauwolscine specifically bound.

Test [2] deals with T2, human recombinant serotonin (5-Hydroxytryptamine) 5-HT6 receptor (Homo sapiens, UniProt P50406).
T2 construct: expressed in transfected cells; host or cells: human HeLa cells
T2 sequence (P50406 whole entry): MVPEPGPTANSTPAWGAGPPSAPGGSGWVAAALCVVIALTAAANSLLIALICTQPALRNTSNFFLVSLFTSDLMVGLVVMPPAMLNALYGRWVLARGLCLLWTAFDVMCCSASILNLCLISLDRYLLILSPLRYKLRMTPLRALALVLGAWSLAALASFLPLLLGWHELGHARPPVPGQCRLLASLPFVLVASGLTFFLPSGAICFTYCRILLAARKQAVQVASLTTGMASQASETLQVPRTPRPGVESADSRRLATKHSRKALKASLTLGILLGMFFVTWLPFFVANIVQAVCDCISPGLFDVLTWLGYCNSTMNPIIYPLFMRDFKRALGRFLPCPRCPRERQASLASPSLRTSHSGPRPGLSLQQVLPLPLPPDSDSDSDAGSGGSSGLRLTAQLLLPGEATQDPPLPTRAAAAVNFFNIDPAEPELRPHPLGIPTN
The test can be described thus: Serotonin 5-HT6 radioligand binding assay ([3H]LSD). Particulars: HeLa cells; for inhibition at 1 µM: compound at 1 μM, read-out: Percent Inhibition of ligand binding, Serotonin (1 μM) 5-HT6; for inhibition at 0.1 µM: compound at 0.1 μM, read-out: Percent Inhibition of ligand binding, Serotonin (0.1 μM) 5-HT6. As for the experimental part:
Compounds of the invention were incubated with 1.5 nM [3H]Lysergic acid diethylamide (LSD) for 120 min at 37° C. […] Receptor proteins were filtered and washed, the filters were then counted to determine [3H]LSD specifically bound. Compounds were screened at 1 μM or lower, using 1% DMSO as vehicle. Biochemical assay results are presented as the percent inhibition of specific binding in Table 4.

Test [3] concerns the target human recombinant histamine H1 receptor (Homo sapiens, UniProt P35367). Put plainly: Histamine H1 radioligand binding assay ([3H]Pyrilamine). Particulars: receptor expressed in CHO cells; for inhibition at 1 µM: compound at 1 μM; for inhibition at 0.1 µM: compound at 0.1 μM. A digest of the protocol:
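Membranes from CHO cells expressing the receptor, in 50 mM Tris-HCl pH 7.4 with 2 mM MgCl2, 100 mM NaCl and 250 mM sucrose, incubated with 1.2 nM [3H]pyrilamine for 180 min at 25° C; nonspecific binding defined with 1 μM pyrilamine.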

Test [4] concerns the target T3, human recombinant serotonin (5-Hydroxytryptamine) 5-HT2C receptor (Homo sapiens, UniProt P28335).
T3 construct: expressed in transfected cells; host or cells: Chinese hamster ovary (CHO-K1) cells
T3 sequence (P28335 33-458): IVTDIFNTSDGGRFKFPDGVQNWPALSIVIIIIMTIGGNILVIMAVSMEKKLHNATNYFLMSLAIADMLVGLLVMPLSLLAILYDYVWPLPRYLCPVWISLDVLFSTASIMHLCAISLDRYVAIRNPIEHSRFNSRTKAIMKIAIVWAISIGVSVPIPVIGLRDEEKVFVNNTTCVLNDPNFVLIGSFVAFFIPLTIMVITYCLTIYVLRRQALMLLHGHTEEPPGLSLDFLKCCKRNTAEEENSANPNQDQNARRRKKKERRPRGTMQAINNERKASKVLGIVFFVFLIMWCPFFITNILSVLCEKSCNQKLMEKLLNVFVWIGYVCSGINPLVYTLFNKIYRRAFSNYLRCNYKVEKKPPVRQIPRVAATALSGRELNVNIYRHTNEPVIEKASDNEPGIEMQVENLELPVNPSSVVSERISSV
Put plainly: Serotonin 5-HT2C radioligand binding assay ([3H]Mesulergine). The following applies: 1 nM [3H]Mesulergine, CHO-K1 cells; for inhibition at 1 µM: compound at 1 μM, read-out: Percent Inhibition of ligand binding, Serotonin (1 μM) 5-HT2C; for inhibition at 0.1 µM: compound at 0.1 μM, read-out: Percent Inhibition of ligand binding, Serotonin (0.1 μM) 5-HT2C. As for the experimental part:
Compounds of the invention were incubated with 1 nM [^3H]Mesulergine for 60 min at 25° C. Non-specific binding was estimated in the presence of 1 μM Mianserin. Receptor proteins were filtered and washed, the filters were then counted to determine [^3H]Mesulergine specifically bound. Compounds were screened at 1 μM or lower, using 1% DMSO as vehicle. Biochemical assay results are presented as the percent inhibition of specific binding in Table 4.

Test [5] has as its target human recombinant dopamine D2L receptor (Homo sapiens, UniProt P14416). Put plainly: Dopamine D2L radioligand binding assay ([3H]Spiperone). Particulars: compound at 1 μM, 0.16 nM [3H]Spiperone, CHO cells, read-out: Percent Inhibition of ligand binding, Dopamine (1μM). As for the experimental part: Compounds of the invention were incubated with 0.16 nM [^3H]Spiperone for 120 min at 25° C. Non-specific binding was estimated in the presence of 10 μM Haloperidol. Receptor proteins were filtered and washed, the filters were then counted to determine [^3H]Spiperone specifically bound. Compounds were screened at 1 μM or lower, using 1% DMSO as vehicle. Biochemical assay results are presented as the percent inhibition of specific binding in Table 3.

For test [6], the target named is human recombinant serotonin (5-Hydroxytryptamine) 5-HT7 receptor (Homo sapiens, UniProt P34969). Put plainly: Serotonin 5-HT7 radioligand binding assay ([3H]LSD). The following applies: 5.5 nM [3H]LSD, CHO cells; for inhibition at 1 µM: compound at 1 μM, read-out: Percent Inhibition of ligand binding, Serotonin (1 μM) 5-HT7; for inhibition at 0.1 µM: compound at 0.1 μM, read-out: Percent Inhibition of ligand binding, Serotonin (0.1 μM) 5-HT7. The protocol:
Compounds of invention were incubated with 5.5 nM [^3H] Lysergic acid diethylamide (LSD) for 2 h at 25° C. […] Receptor proteins were filtered and washed, the filters were then counted to determine [^3H]LSD specifically bound. Compounds were screened at 1 μM or lower, using 1% DMSO as vehicle. Biochemical assay results are presented as the percent inhibition of specific binding in Table 4.

Chain of human recombinant dopamine D2L receptor (P14416 whole entry): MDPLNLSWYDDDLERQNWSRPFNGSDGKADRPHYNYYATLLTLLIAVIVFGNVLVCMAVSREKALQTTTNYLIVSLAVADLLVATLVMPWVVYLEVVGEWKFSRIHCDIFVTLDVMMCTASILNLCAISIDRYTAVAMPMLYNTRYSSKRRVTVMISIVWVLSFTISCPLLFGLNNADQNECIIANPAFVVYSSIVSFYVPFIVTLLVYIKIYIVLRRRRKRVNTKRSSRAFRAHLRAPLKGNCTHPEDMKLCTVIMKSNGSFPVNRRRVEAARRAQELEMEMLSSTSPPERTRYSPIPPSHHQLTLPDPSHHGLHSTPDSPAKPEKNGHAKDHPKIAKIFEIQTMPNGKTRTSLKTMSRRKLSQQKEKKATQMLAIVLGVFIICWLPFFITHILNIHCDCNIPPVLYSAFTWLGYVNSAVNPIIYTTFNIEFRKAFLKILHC
Chain of human recombinant histamine H1 receptor (P35367 whole entry): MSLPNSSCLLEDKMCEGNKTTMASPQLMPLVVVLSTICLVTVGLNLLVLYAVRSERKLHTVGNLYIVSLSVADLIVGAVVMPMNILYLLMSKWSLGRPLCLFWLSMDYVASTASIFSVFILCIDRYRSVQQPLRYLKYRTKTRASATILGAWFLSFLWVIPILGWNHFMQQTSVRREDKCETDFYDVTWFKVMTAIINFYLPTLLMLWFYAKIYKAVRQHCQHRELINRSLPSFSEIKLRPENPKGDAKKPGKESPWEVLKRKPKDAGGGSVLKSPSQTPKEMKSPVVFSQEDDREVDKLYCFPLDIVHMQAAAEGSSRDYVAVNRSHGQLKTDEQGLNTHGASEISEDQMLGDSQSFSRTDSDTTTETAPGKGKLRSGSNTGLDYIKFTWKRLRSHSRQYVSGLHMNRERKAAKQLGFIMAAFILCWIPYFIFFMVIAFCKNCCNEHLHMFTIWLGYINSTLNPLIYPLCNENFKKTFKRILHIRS
Chain of human recombinant serotonin (5-Hydroxytryptamine) 5-HT7 receptor (P34969 whole entry): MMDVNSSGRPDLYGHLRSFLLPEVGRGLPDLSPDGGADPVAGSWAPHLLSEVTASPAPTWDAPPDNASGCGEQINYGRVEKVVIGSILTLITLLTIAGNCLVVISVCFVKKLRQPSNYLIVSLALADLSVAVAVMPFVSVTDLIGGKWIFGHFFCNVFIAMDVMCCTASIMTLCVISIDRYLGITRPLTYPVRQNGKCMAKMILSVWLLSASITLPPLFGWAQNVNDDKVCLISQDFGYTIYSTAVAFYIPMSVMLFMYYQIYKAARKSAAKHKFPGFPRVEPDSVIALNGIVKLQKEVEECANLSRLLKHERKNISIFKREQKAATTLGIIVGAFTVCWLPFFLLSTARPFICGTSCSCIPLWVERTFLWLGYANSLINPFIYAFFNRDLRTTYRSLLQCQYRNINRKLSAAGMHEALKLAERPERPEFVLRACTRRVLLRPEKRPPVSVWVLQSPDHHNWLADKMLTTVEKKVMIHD

The inhibition is the drop in the measured response relative to a control, in per cent. Take `Cc1ccc2c(c1)c1c(n2CC(C)(O)c2ccc(O)cc2)CCN(C)C1` (stereo not shown) [Compound 1-15, 4-(1-(2,8-dimethyl-3,4-dihydro-1H-pyrido[4,3-b]indol-5(2H)-yl)-2-hydroxypropan-2-yl)phenol]: the inhibition at 0.1 µM in test [1] came to 103%.

With `CN1CCc2c(c3cc(Cl)c(Cl)cc3n2CC(C)(O)c2ccncc2)C1` (stereo not shown) [Compound 1-17, 1-(7,8-dichloro-2-methyl-3,4-dihydro-1H-pyrido[4,3-b]indol-5(2H)-yl)-2-(pyridin-4-yl)propan-2-ol], the inhibition at 0.1 µM in test [1] is 64%.

Turning to `COc1ccc([C@](C)(O)Cn2c3c(c4cc(C)ccc42)CN(C)CC3)cc1` [Compound 1-20, (S)-1-(2,8-Dimethyl-3,4-dihydro-1H-pyrido[4,3-b]indol-5(2H)-yl)-2-(4-methoxyphenyl)propan-2-ol], in test [1], the inhibition at 0.1 µM came to 79%.

Turning to `Cc1ccc2c(c1)c1c(n2CCc2ccc(C)nc2)CCN(CCC#N)C1` [Compound 1-34, 3-(8-methyl-5-(2-(6-methylpyridin-3-yl)ethyl)-3,4-dihydro-1H-pyrido[4,3-b]indol-2(5H)-yl)propanenitrile], the inhibition at 1 µM in test [1] was 23%; in test [2], 6%; in test [3], 65%; in test [4] it was 16%; in test [5], -4%.

With `Cc1ccc2c(c1)c1c(n2CC(=O)c2ccccc2)CCN(C)C1` [Compound 1-35, 2-(2,8-dimethyl-3,4-dihydro-1H-pyrido[4,3-b]indol-5(2H)-yl)-1-phenylethanone], the inhibition at 1 µM in test [1] was 59%; in test [2], 14%; in test [3], 52%; in test [4] it was 75%; in test [5], 4%.

Turning to `CN1CCc2c(c3cc(Cl)ccc3n2CC(=O)c2ccccc2)C1` [Compound 1-36, 2-(8-chloro-2-methyl-3,4-dihydro-1H-pyrido[4,3-b]indol-5(2H)-yl)-1-phenylethanone], the inhibition at 1 µM was found to be 92% in test [1]; 71% in test [2]; 84% in test [3]; 94% in test [4]; 73% in test [5].

For the compound `CN1CCc2c(c3cc(Cl)ccc3n2CC(=O)c2ccc(F)cc2)C1` [Compound 1-37, 2-(8-chloro-2-methyl-3,4-dihydro-1H-pyrido[4,3-b]indol-5(2H)-yl)-1-(4-fluorophenyl)ethanone], the inhibition at 1 µM in test [6] turned out to be 73%; in test [1], 87%; in test [2], 71%; in test [3] it was 83%; in test [4], 97%; in test [5], 85%.

With `CN1CCc2c(c3cc(Cl)ccc3n2CC(=O)c2ccc(Cl)cc2)C1` [Compound 1-38, 2-(8-chloro-2-methyl-3,4-dihydro-1H-pyrido[4,3-b]indol-5(2H)-yl)-1-(4-chlorophenyl)ethanone], the inhibition at 1 µM in test [6] came out at 81%; in test [1], 92%; in test [2], 57%; in test [3], 91%; in test [4], 101%; in test [5], 44%.

For `Cc1ccc2c(c1)c1c(n2CCc2ccc(CCCN)nc2)CCN(C)C1` [Compound 1-40, 3-(5-(2-(2,8-dimethyl-3,4-dihydro-1H-pyrido[4,3-b]indol-5(2H)-yl)ethyl)pyridin-2-yl)propan-1-amine], the inhibition at 1 µM is 63% in test [1]; 24% in test [2]; 81% in test [3]; 91% in test [4]; 3% in test [5].

As for `Cc1ccc2c(c1)c1c(n2CC(C)c2ccncc2)CCN(C)C1` (stereo not shown) [Compound 1-46, 2,8-dimethyl-5-(2-(pyridin-4-yl)propyl)-2,3,4,5-tetrahydro-1H-pyrido[4,3-b]indole], the results for the inhibition at 0.1 µM in test [6], in test [2] and in test [4] were 93%, 45% and 83%, respectively. Besides, the figures for the inhibition at 1 µM in test [3] and in test [5] were 90% and 37%, respectively.

With `Cc1ccc2c(c1)c1c(n2CC(C)(C)c2ccncc2)CCN(C)C1` [Compound 1-49, 2,8-dimethyl-5-(2-methyl-2-(pyridin-4-yl)propyl)-2,3,4,5-tetrahydro-1H-pyrido[4,3-b]indole], the inhibition at 0.1 µM was 95% in test [6], 38% in test [2] and 96% in test [4]. The inhibition at 1 µM in test [3] came out at 94%; in test [5], 54%.

Consider `CC[C@@](O)(Cn1c2c(c3cc(C)ccc31)CN(C)CC2)c1ccncc1` [Compound 1-62, (S)-1-(2,8-Dimethyl-3,4-dihydro-1H-pyrido[4,3-b]indol-5(2H)-yl)-2-(pyridine-4-yl)butan-2-ol], for which the inhibition at 0.1 µM amounted to 30% in test [6], 28% in test [2], 3% in test [3] and 33% in test [4]. In addition, the inhibition at 1 µM in test [5] stood at 9%.

Turning to `CC[C@@](O)(Cn1c2c(c3cc(C)ccc31)CN(C)CC2)c1ccc(F)cc1` [Compound 1-66, (S)-1-(2,8-dimethyl-3,4-dihydro-1H-pyrido[4,3-b]indol-5(2H)-yl)-2-(4-fluorophenyl)butan-2-ol], the inhibition at 0.1 µM in test [6] is 19%; in test [2], 72%; in test [3] it was -12%; in test [4], 84%. In addition, in test [5], the inhibition at 1 µM amounted to 6%.
